# Test results as given in article PMC12731536, “Sc(III) Complexes of Pyclen Derivative Ligands as Probes for Hypoxia: Synthesis, Chemical Characterization, ^44Sc‐Radiolabeling, and Preclinical Assessment” (Chemistry (Weinheim an Der Bergstrasse, Germany), 2025).
# Read-outs that look alike come from different tables or passages of the source.
# Tests used:
# [1] = cited from earlier work
# [2] = I = 0.15 M NaCl, T = 25 °C; cited from earlier work
# [3] = Stability constants of Sc(III) complexes, out‐of‐cell (batch) samples, 45Sc NMR; format: physicochemical; conditions: for AL/M (relative affinity): [Sc(III)]total = 10 nM, [L]tot = 100 nM
# Experimental: The stability constant of the complex of PC2AM^nBu ligand formed with Sc(III) ion was studied using “out‐of‐cell” (batch) samples using ^45Sc NMR spectroscopy in strongly acidic media. Typical ^45Sc NMR spectra are shown in Figure 5 along with the corresponding ^1H NMR spectra of the aromatic region of the ligand.
# Using the ^45Sc NMR signal intensities of free Sc^3+ measured in the equilibrated samples, the stability constant, K ScL, was calculated by fitting the areas with the PSEQUAD program ^[ [47] ^] (Figure 6). The best fitting was observed by considering the simplest model including only [Sc(PC2AM^nBu)]^+ species; that is, the formation of protonated [Sc(HPC2AM^nBu)]^2+ cannot be confirmed.
# The stability constant of the [Sc(PCTA)] complex was determined in a similar way (Figure S13). The results were summarized in Table 2, including the data of [Sc(DO3AM‐NI)], determined in our previous study.^[ [33] ^]
# Among the complexes shown in Table 2, the [Sc(DO3AM‐NI)] complex has the highest stability, but its stability constant is lower than the corresponding values of [Sc(DOTA)]^− (log K ScL = 30.79) and [Sc(DTPA)]^2− (log K ScL = 27.43). ^[ [49] ^] As evidenced for DO3AM‐mono(amide) the replacement of acetate side chains with amide groups results in a decrease in stability constant (and conditional stability); therefore, we can see an order of magnitude difference between the stabilities of [Sc(PCTA)] and [Sc(PC2AM^nBu)]^+. Although these K ScL constants and pSc values are somewhat lower than those of the complexes formed with traditional DOTA and DTPA ligands, these chelators remain remarkably good Sc(III)‐binding chelators. […] Therefore, following the proposal of M. Meyer and colleagues,^[ [48] ^] […] For the AL/M values, 1 corresponds to 90%, 2 corresponds to 99%, 3 corresponds to 99.9% etc. for complex formation. […] The AL/M data of the [Sc(PC2AM^nBu)]^+ complex only exceeds that of the [Sc(DO3AM‐NI)] complex in the pH < 3.0 range, which can be advantageous for labeling at low pH. Furthermore, based on the data in Table 2, it can be concluded that for these systems there is no discrepancy between the trends observed in the pSc and AL/M values.
# The stability constant of [Sc(PC2AM^nBu)]^+ and [Sc(PCTA)] complexes was studied using “out‐of‐cell” (batch) samples using ^45Sc and ^1H NMR spectroscopy. The NMR spectra were obtained using a Bruker Avance II DRX spectrometer (9.4 T), equipped with Bruker Variable Temperature Unit, Bruker Cooling Unit, and a 5 mm BB inverse z gradient probe. For the investigation of [Sc(PC2AMnBu)]⁺, twelve samples (cSc(III) = 3.00 mM, cligand = 3.06 mM, in the pH range of –log[H^+] = 0.1–1.3; I = 1.0 M NaCl/HCl) were prepared in NMR tubes and kept at 25 °C for one week to reach equilibrium. During this period, ^1H and ^45Sc NMR measurements were performed daily to monitor changes in signal intensities. No significant changes were detected after one week, even in the most acidic sample. The intensities of the free Sc(III) signals were normalized using a standard 50 mM ScCl3 solution containing 1 M HCl (20% D2O). For the determination of the stability of the [Sc(PCTA)] complex, eleven “batch” samples (cSc(III) = 4.00 mM, cligand = 4.08 mM), in the pH range of –log[H^+] = 0.1–1.25, were prepared. The evaluation of the measured data was performed using the PSEQUAD program.^[ [47] ^] Samples were prepared in H2O, with 10% D2O added for deuterium lock. The actual resonance frequencies for ^1H, ^13C, ^19F, and ^45Sc are indicated in the text and figure captions. The chemical shifts of ^1H and ^13C were calibrated using an external TMS standard, while ^19F was referenced to CCl3F. The ^45Sc NMR shift was calibrated to 0 ppm using a 5 mM solution of ScCl3 in 0.1 M HCl.
# [4] = pH‐potentiometric determination of ligand protonation constants; format: physicochemical; conditions: T = 25 °C
# Experimental: The equilibrium study of the PC2AM^nBu ligand has been started by determining the protonation constants in 0.15 M and 1.00 M NaCl ionic strength. (As the stability of the Sc(III) complex was determined in 1.00 M ionic strength, we had to perform the pH‐potentiometric titration of ligands using 1.00 M ionic strengths also.) The results of pH‐potentiometric measurement are shown in Table 1, where the corresponding data for 3,9‐PC2A,^[ [42] ^] PCTA ^[ [46] ^] and PC2AM‐NI ligands determined under identical conditions are also presented. Knowledge of the protonation constants defined by Eqn. 1 and 2 are essential for the calculation of the stability constants of the Sc(III) complexes:
# (1) PC2AM^nBu^2−+nH^+⇌Hn(PC2AM^nBu)^−2+n (2) βn=HnPC2AM^nBu^−2+n/PC2AM^nBu^2−H^+^n
# The protonation constants of the ligands, as well as the concentrations of the ligand stock solutions, were determined by pH‐potentiometric method using a Metrohm 785 DMP Titrino automatic titrator using a Metrohm 6.00234.100 combined glass electrode. The titrations were carried out in the pH range 1.75–11.80 and the pH electrode was calibrated by a two‐point calibration routine with the use of 0.05 M KH‐phthalate (pH = 4.005) and 0.01 M borax (pH = 9.177 buffers. The samples were stirred at 25 °C (±0.1 °C) and N2 gas bubbled into the system to ensure inert conditions and to eliminate the effect of the presence of CO2. For the calculation of [H^+] from the measured pH values, the method proposed by Irving et al. was applied.^[ [61] ^] For this, a 0.01 M HCl solution was titrated with the standardized NaOH solution in the presence of 0.15 M NaCl ionic strength at 25 °C. The differences between the measured (pHread) and calculated pH (‐log[H^+]) values were used to obtain the equilibrium H^+ concentration from the pHmeas values during the titrations. By fitting the resulting titration curves (pH – V (NaOH) data pairs) with the PSEQUAD program, the protonation constants of the ligands were determined.^[ [47] ^] The titration of the [Sc(PC2AM^nBu)]^+ with NaOH was performed with the same method by applying very similar conditions.
# [5] = Acid‐assisted dissociation (decomplexation) of Sc(III) complexes, UV spectroscopy; format: physicochemical; conditions: dissociation of the Sc(III) complex, 1.6‐2.6 M HClO4, 25 °C, I = 2.6 M
# From the text: The inertness of metal complexes is a basic requirement in all relevant modalities of medical imaging. Complexes of macrocyclic ligands are often more inert compared to open‐chain analogs. In order to assess the behavior of our complexes, the decomplexation of [Sc(PC2AM^nBu)]^+ and [Sc(PCTA)] was studied in a strongly acidic medium (cH + = 1.6 ‐ 2.6 M HClO4) by using UV spectroscopy. […] The primary Abs. versus time curves have been fitted by monoexponential function returning kobs (s^−1) values (Figures S22 and S23).
# The plots of the rate constants as a function of acid concentration yielded linear relationships for both complexes (k obs = k 0 + k 1[H^+]). The slopes of these lines correspond to the rate coefficients characteristic for acid‐assisted dissociation (k 1), whereas the intercepts characterize the acid‐independent part, often referred to as a rate of spontaneous dissociation. […] The rate coefficients obtained during the fitting are summarized in Table 3, along with the half‐lives calculated from the rate coefficients by using 1 M acid concentration (t ½ = ln 2 / k obs).
# Kinetic studies of the dissociation of the [Sc(PC2AMnBu)]^+ and [Sc(PCTA)] complexes were carried out by examining the dependence of the dissociation rates on acid concentration. Spectrophotometric measurements were conducted on a JASCO V‐760 spectrophotometer at λ = 280 nm. The concentration of the complex in the sample was 0.30 mM, and HClO4 was applied in concentrations ranging from 1.6 to 2.6 M. The evaluation of the measured data was performed with Scientist software ^[ [62] ^] to determine the k 0 (spontaneous) and k 1 (acid‐assisted) reaction rates.
# [6] = Time course of Sc(III) complex formation, 45Sc NMR; format: physicochemical
# Experimental: The time course of complex formation of PC2AM^nBu and PCTA ligands with Sc(III) ion was investigated by ^45Sc‐NMR under acidic conditions (cSc = cligand = 10 mM and 9.5 mM, respectively, ‐log[H^+] = 1.28). The decrease of the narrow signal of the free Sc(III) ion was monitored as a function of time. […] The kinetic measurements of formation could be seen in Figures S18 and S19. The complexation for the [Sc(PCTA)] chelate at pH = 1.28 and 25 °C took about 300 minutes to reach the equilibrium, whereas for the [Sc(PC2AM^nBu)]^+ complex it took a bit longer time under these conditions. (In order to confirm that the samples reached the equilibrium, we have repeated the ^45Sc NMR study for both samples after a few days when the signal of the free Sc(III) was absent, and only the signals of the complexes were detected.) The detailed study of formation kinetics was not our aim in this project. One can expect that the reaction follows the well‐known mechanisms of M(III) ‐ macrocyclic APC systems ^[ [54] ^]: formation of a protonated intermediate in fast pre‐equilibrium followed by a slow, base‐catalyzed deprotonation/structural rearrangement as a rate‐determining step. The intermediate is named also as “out‐of‐cage complex.”^[ [55] ^] Our experimental curves are likely in accordance with this mechanism. Fitting the measured data for the free Sc(III) signals by a monoexponential function gives the rate constant k obs = (1.04 ± 0 .05) x 10^−4 s^−1 for the [Sc(PC2AM^nBu)]^+ and k obs = (2.51 ± 0.12) x 10^−4 s^−1 for the [Sc(PCTA)] complex. […] The relatively fast complex formation at the given acidic condition is very encouraging for the Sc(III) labeling experiments.
# ^45Sc NMR measurements (97 MHz) were performed on a Bruker DRX 400 (9.4 T) spectrometer equipped with a Bruker VT‐1000 thermocontroller and a BB inverse z‐gradient probe (5 mm). The kinetic experiments were performed at 25 °C in aqueous solution, using D2O (10% v/v) as a lock solvent. Typical parameters for 45Sc NMR measurements were used: TD = 32k, p1 = 15.6 µs (90°), d 1 = 0.1 s. The formation reactions of the [Sc(PC2AM^nBu)]^+ and [Sc(PCTA)] complexes were monitored by ^45Sc NMR spectroscopy in two sample types: one containing 10.0 mM PC2AM^nBu and ScCl3 / 9.5 mM […] and ScCl3. In both cases, the total acid concentration corresponded to a pH of 1.28. Obtained monoexponential curves (signal area of free Sc(III) vs. time) were fitted using Scientist software ^[ [62] ^] to determine the formation rate.
structure (smiles),measurement,setting,value
O=C(O)CN1CCN(CC(=O)O)CCN(CC(=O)NCCn2ccnc2[N+](=O)[O-])CCN(CC(=O)O)CC1 [DO3AM‐NI],pSc,"[1]; pSc = ‐log[Sc(III)]free, cSc(III) = 1x10^−8 M, clig = 1x10^−7 M, pH = 7.4, I = 0.15 M NaCl",20.74
same,log K ScL,"[1]; stability constant of the Sc(III) complex, I = 0.15 M NaCl, T = 25 °C",22.36
same,log β 2 ^H,[2],17.38
same,AL/M (relative affinity),"[3]; pH = 7.4, I = 0.15 M NaCl, calculated from constants of ref 33",6.57
CCCCNC(=O)CN1CCN(CC(=O)O)Cc2cccc(n2)CN(CC(=O)O)CC1 [PC2AM^nBu],log K 1 ^H,[4]; I = 0.15 M NaCl,8.79(1)
same,log K 2 ^H,[4]; I = 0.15 M NaCl,7.59(1)
same,log K 3 ^H,[4]; I = 0.15 M NaCl,2.31(2)
same,log K 4 ^H,[4]; I = 0.15 M NaCl,1.28(3)
same,log β 2 ^H,[4]; I = 0.15 M NaCl,16.38
same,log K 1 ^H,[4]; I = 1.00 M NaCl,8.13(2)
same,log K 2 ^H,[4]; I = 1.00 M NaCl,7.59(1)
same,log K 3 ^H,[4]; I = 1.00 M NaCl,2.52(1)
same,log β 2 ^H,[4]; I = 1.00 M NaCl,15.72
same,k 0 (spontaneous dissociation),[5],0 s⁻¹
same,k 1 (acid‐assisted dissociation),[5],(3.64 ± 0.08) x 10^−7 M^−1s^−1
same,AL/M (relative affinity),"[3]; pH = 7.4, I = 1.00 M NaCl",5.17
same,pSc,"[3]; pSc = ‐log[Sc(III)]free, cSc(III) = 1x10^−8 M, clig = 1x10^−7 M, pH = 7.4, I = 1.00 M NaCl",19.32
same,log K ScL,"[3]; stability constant of the Sc(III) complex, I = 1.00 M NaCl, T = 25 °C",19.53(4)
O=C([O-])CN1CCN(CC(=O)[O-])CCN(CC(=O)[O-])CCN(CC(=O)[O-])CC1.[Sc+3] [[Sc(DOTA)]^−],log K ScL,[1]; literature stability constant,30.79
O=C([O-])CN(CCN(CC(=O)[O-])CC(=O)[O-])CCN(CC(=O)[O-])CC(=O)[O-].[Sc+3] [[Sc(DTPA)]^2−],log K ScL,[1]; literature stability constant,27.43
O=C([O-])CN1CCN(CC(=O)[O-])Cc2cccc(n2)CN(CC(=O)[O-])CC1.[Sc+3] [[Sc(PCTA)]],time of complexation to reach the equilibrium,"[6]; pH = 1.28, 25 °C",about 300 minutes
same,half‐life of the complex formation reaction (t 1/2 = ln2 / k obs),"[6]; ‐log[H^+] = 1.28, 25 °C",46 min
same,k obs of complex formation,"[6]; ‐log[H^+] = 1.28, 25 °C, cSc = cligand = 10 mM (PC2AM^nBu) or 9.5 mM (PCTA), monoexponential fit of free Sc(III) signal",(2.51 ± 0.12) x 10^−4 s^−1
